Experimental data: the NIST ThermoML archive (doi:10.1021/je060476j)
± gives the expanded uncertainty stated by the source.

What was measured:
[1] = Liquid, Ebulliometric method (Recirculating still)
[2] = refractive index (Na D-line) (dimensionless); conditions: 298.15 K; 101.33 kPa; Liquid; Standard Abbe refractometry

For `CCC(C)(C)O` [2-methylbutan-2-ol], the “vapor or sublimation pressure” value ([1]; 375.14 K) was 101.3 ± 0.6 kPa and the refractive index [2] was 1.4018 ± 0.0007.
For `CO` [methanol], the “vapor or sublimation pressure” value ([1]; 337.68 K) was 101.3 ± 0.6 kPa and the refractive index [2] was 1.3261 ± 0.0007.
For `CC(C)O` [propan-2-ol], the “vapor or sublimation pressure” value ([1]; 355.5 K) was 101.3 ± 0.6 kPa and the refractive index [2] was 1.375 ± 0.0007.
